Values of other authors in patent US8398606B2, “Folded perineal pad” (QuantrRx Biomedical Corporation, priority 2007, dated 2013).

Parameters: dose or concentration left out as unconfirmed
Conditions: ILP system releasing of estradiol as its 3-acetate ester, in HRT; maintained level

C[C@]12CC[C@@H]3c4ccc(O)cc4CC[C@H]3[C@@H]1CC[C@@H]2O [estradiol]
circulating plasma concentration of the drug: 300 pmol/L
